Measurements from the Kinase Knowledgebase extract (Sharma et al. 2016).
Where “and” joins values, the source holds several entries; their conditions need not be identical. Equal entries are not always repeated.

Tests used:
[1] = molecular target: EGFR (human) (UniProt P00533); conditions: A431
[2] = molecular target: EGFR (human) (UniProt P00533); conditions: a431
[3] = molecular target: EGFR (human) (UniProt P00533); conditions: dher14

Sequence of EGFR (human) (P00533 whole entry, looked up): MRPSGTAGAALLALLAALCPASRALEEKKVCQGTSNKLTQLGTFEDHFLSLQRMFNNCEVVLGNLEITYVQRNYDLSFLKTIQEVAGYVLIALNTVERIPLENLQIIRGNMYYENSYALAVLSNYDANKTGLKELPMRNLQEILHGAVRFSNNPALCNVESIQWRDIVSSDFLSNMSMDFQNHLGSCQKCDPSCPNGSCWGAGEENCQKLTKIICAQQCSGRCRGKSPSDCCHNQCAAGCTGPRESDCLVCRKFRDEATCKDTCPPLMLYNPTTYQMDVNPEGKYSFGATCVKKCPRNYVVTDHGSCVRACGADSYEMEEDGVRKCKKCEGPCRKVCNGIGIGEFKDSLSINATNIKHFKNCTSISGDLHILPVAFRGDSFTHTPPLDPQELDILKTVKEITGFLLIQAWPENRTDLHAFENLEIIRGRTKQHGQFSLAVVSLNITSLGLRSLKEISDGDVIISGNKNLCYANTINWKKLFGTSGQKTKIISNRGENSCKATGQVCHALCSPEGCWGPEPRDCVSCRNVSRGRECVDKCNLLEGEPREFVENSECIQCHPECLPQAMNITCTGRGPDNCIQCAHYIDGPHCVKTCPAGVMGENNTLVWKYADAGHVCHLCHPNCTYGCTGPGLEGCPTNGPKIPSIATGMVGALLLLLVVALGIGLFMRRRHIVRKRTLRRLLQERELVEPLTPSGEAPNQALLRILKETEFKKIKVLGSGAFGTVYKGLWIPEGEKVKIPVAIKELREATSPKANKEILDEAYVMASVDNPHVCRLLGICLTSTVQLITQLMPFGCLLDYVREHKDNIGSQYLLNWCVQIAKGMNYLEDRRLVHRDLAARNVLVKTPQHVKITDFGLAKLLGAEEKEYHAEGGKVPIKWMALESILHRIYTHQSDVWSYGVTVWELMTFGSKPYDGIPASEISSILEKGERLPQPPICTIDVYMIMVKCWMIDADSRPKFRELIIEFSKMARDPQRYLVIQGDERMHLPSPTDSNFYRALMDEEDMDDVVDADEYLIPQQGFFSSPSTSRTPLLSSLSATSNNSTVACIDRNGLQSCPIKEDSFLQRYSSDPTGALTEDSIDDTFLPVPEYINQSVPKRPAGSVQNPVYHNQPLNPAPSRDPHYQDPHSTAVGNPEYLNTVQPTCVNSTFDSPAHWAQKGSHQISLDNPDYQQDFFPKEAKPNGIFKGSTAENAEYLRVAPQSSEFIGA

SMILES | IC50 [1] [µM] | IC50 [2] | IC50 [3] [nM]
C=CC(=O)Nc1cc2c(Nc3cccc(Br)c3)ncnc2cc1N1CCN(C)CC1 | 0.5 to 13 | 50 to 250 nM | 
COCC(=O)Nc1ccc2ncnc(Nc3cccc(I)c3)c2c1 |  | 1000 to 5000 nM | 
COc1cc2ncnc(Nc3cc(Cl)c(Cl)cc3F)c2cc1OC |  | 3 to 5 nM | 

The next lines start with the values.

IC50 [1] [µM] | IC50 [2] | IC50 [3] [nM] | SMILES
 | 6.7 to 20 nM |  | C=CC(=O)Nc1ccc2ncnc(Nc3cc(Cl)c(Cl)cc3F)c2c1
 | 5 to 25 nM and 25 to 50 nM |  | O=C(CCl)Nc1ccc2ncnc(Nc3cc(Cl)c(Cl)cc3F)c2c1
 | 1000 to 10000 nM | > 250 | COCC(=O)Nc1ccc2ncnc(Nc3cc(Cl)c(Cl)cc3F)c2c1
